In US12049450B2, “Pyridyloxy-carboxylate derivative and preparation method therefor, herbicidal composition, and use” (Qingdao Kingagroot Chemical Compound Co., Ltd., priority 2018, dated 2024):

How the values were obtained:
Experiment in all cases: Post-emergence test experiment (greenhouse pot, spray at 2-3 leaf stage)
Format in all cases: in vivo
Abutilon theophrasti = conditions: 1000 g/ha; post-emergence spray at 2-3 leaf stage; assessed after 3 weeks; fresh weight inhibition rate
Summary of the method: (§1)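 Activity graded levels 0-5 by fresh-weight inhibition (level 5 above 85%, level 0 below 5%), assessed 3 weeks after treatment. Plants grown in greenhouse pots were sprayed post-emergence at 2-3 leaves using acetone/tween-80 solutions with methyl oleate synergist (1.5 L/ha).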

Cyperus iria = conditions: post-emergence comparison, 600 g/ha
Summary of the method: as §1

Echinochloa phyllopogon = conditions: 600 g/ha
Summary of the method: as §1

Digitaria sanguinalis = system: Digitaria sanguinalis
Summary of the method: as §1

Monochoria vaginalis = conditions: 1000 g/ha; post-emergence spray at 2-3 leaf stage; assessed after 3 weeks; fresh weight inhibition rate
Summary of the method: as §1

Galium spurium = conditions: 1000 g/ha; post-emergence spray at 2-3 leaf stage; assessed after 3 weeks; fresh weight inhibition rate
Summary of the method: as §1

Echinochloa crusgalli = system: Echinochloa crusgalli
Summary of the method: as §1

Japonica rice = conditions: post-emergence comparison, 600 g/ha
Summary of the method: as §1

Leptochloa chinensis = conditions: 600 g/ha
Summary of the method: as §1

Setaria viridis = conditions: 600 g/ha
Summary of the method: as §1

Indica rice = conditions: post-emergence comparison, 600 g/ha
Summary of the method: as §1

[1] = 1000 g/ha, post-emergence spray at 2-3 leaf stage, assessed after 3 weeks, fresh weight inhibition rate
[2] = post-emergence comparison, 600 g/ha

SMILES: CC(Oc1nc(F)c(Cl)c(N)c1Cl)C(=O)OCc1c(F)c(F)c(F)c(F)c1F (stereo not shown) [Compound 238]
- Activity level (growth inhibition rate) Abutilon theophrasti (Abutilon theophrasti): 5 (Level 5: the growth inhibition rate is greater than 85%)
- Cyperus iria, activity level (comparison test) (Cyperus iria): 5 (Level 5: the growth inhibition rate is greater than 85%)
- Echinochloa phyllopogon, activity level (comparison test) (Echinochloa phyllopogon): 4 (Level 4: the growth inhibition rate is equal to or greater than 60% and less than 85%)
- Activity level (growth inhibition rate) Digitaria sanguinalis (Digitaria sanguinalis; [1]): 5 (Level 5: the growth inhibition rate is greater than 85%)
- Digitaria sanguinalis, activity level (comparison test) (Digitaria sanguinalis; [2]): 5 (Level 5: the growth inhibition rate is greater than 85%)
- Activity level (growth inhibition rate) Monochoria Vaginalis (Monochoria vaginalis): 5 (Level 5: the growth inhibition rate is greater than 85%)
- Activity level (growth inhibition rate) Galium spurium (Galium spurium): 5 (Level 5: the growth inhibition rate is greater than 85%)
- Activity level (growth inhibition rate) Echinochloa crusgalli (Echinochloa crusgalli; [1]): 5 (Level 5: the growth inhibition rate is greater than 85%)
- Echinochloa crusgalli, activity level (comparison test) (Echinochloa crusgalli; [2]): 5 (Level 5: the growth inhibition rate is greater than 85%)
- Japonica rice, activity level (comparison test) (Japonica rice): 0 (Level 0: the growth inhibition rate is less than 5%)
- Leptochloa chinensis, activity level (comparison test) (Leptochloa chinensis): 5 (Level 5: the growth inhibition rate is greater than 85%)
- Setaria viridis, activity level (comparison test) (Setaria viridis): 5 (Level 5: the growth inhibition rate is greater than 85%)
- Indica rice, activity level (comparison test) (Indica rice): 0 (Level 0: the growth inhibition rate is less than 5%)
